Reference: ChEMBL document CHEMBL3621105, “Synthesis and evaluation of a bis-3-chloropiperidine derivative incorporating an anthraquinone pharmacophore” (Bioorg Med Chem Lett, 2015)
Active and inactive are the calls of the source. The rule behind the calls is not given here.

Experiments:
Escherichia coli [1] = assay: Induction of Escherichia coli supercoiled pBR322 DNA cleavage assessed as formation of open circular form of DNA after 24 hrs at 25 degC by agarose gel electrophoresis
Escherichia coli [2] = assay: Induction of Escherichia coli supercoiled pBR322 DNA cleavage assessed as formation of linear form of DNA at 0.5 to 50 uM after 24 hrs at 25 degC by agarose gel electrophoresis
[3] = Induction of alkylation of 5'-FAM-labelled scrambled duplex oligonucleotide DNA (unknown origin) at guanine residues G1 to G4 at 5 to 50 uM after 24 hrs by sequencing gel analysis
[4] = Induction of alkylation of 5'-FAM-labelled scrambled duplex oligonucleotide DNA (unknown origin) at guanine residues G1 to G4 after 24 hrs by sequencing gel analysis
Escherichia coli [5] = assay: Induction of Escherichia coli supercoiled pBR322 DNA cleavage at 50 uM after 24 hrs at 25 degC by agarose gel electrophoresis
[6] = Induction of alkylation of 5'-FAM-labelled scrambled duplex oligonucleotide DNA (unknown origin) at guanine residues G1 to G4 at 50 uM after 24 hrs by sequencing gel analysis

Question: Which results are given for CC1(C)CC(Cl)CN(CCCC[C@@H](C(=O)OCc2ccc3c(c2)C(=O)c2ccccc2C3=O)N2CC(Cl)CC(C)(C)C2)C1 (some centres not stated)?
Answer: Activity (Escherichia coli [1]): Dose-dependent effect; Activity (Escherichia coli [2]): inactive; Activity [3]: Active

Question: With COc1ccc(OC(=O)[C@H](CCCCN2CC(Cl)CC(C)(C)C2)N2CC(Cl)CC(C)(C)C2)c2ccccc12 (some centres not stated) as the compound, how does the Activity [4] read?
Answer: Dose-dependent effect

Question: Which results are given for O=C(O)CCCc1ccc(N(CCCl)CCCl)cc1?
Answer: Activity (Escherichia coli [5]): inactive; Activity [6]: inactive

Question: With CC1(C)CC(Cl)CN(CCCC[C@@H](C(=O)Oc2cccc3ccccc23)N2CC(Cl)CC(C)(C)C2)C1 (some centres not stated) as the compound, how does the Activity [4] read?
Answer: Dose-dependent effect
